Assay results from paper PMC6254361, “The properties of Msh2–Msh6 ATP binding mutants suggest a signal amplification mechanism in DNA mismatch repair” (The Journal of Biological Chemistry, 2018).

Target: T1, Msh2–Msh6 (Saccharomyces cerevisiae, UniProt P25847+Q03834, P25847:K694A)
T1 sequence (P25847 1-964 K694A): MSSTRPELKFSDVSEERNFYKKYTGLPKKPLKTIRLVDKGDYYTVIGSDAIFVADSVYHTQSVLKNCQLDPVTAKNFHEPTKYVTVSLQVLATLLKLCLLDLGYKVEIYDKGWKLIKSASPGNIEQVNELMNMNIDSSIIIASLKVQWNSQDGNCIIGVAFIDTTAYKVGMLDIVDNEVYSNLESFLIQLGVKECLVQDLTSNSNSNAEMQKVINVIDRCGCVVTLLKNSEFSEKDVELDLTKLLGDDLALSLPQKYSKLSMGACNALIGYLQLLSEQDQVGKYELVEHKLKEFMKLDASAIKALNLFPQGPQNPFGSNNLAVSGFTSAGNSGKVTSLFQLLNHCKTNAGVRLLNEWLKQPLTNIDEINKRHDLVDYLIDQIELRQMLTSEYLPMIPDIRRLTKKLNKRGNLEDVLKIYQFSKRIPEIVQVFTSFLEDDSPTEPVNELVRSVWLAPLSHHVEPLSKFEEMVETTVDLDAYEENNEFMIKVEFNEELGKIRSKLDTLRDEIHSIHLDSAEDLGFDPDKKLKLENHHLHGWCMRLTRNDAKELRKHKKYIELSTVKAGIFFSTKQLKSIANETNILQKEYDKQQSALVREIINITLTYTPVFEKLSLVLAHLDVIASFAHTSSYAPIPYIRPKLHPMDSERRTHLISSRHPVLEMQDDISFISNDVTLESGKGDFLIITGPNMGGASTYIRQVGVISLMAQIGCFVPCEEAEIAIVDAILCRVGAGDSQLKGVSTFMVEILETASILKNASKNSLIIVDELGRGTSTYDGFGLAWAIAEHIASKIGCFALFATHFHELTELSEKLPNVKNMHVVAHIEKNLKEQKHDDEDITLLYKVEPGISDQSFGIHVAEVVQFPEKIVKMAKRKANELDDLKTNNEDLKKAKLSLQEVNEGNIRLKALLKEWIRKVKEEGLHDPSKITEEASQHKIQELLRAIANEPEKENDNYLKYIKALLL
T1 sequence (Q03834 1-1242): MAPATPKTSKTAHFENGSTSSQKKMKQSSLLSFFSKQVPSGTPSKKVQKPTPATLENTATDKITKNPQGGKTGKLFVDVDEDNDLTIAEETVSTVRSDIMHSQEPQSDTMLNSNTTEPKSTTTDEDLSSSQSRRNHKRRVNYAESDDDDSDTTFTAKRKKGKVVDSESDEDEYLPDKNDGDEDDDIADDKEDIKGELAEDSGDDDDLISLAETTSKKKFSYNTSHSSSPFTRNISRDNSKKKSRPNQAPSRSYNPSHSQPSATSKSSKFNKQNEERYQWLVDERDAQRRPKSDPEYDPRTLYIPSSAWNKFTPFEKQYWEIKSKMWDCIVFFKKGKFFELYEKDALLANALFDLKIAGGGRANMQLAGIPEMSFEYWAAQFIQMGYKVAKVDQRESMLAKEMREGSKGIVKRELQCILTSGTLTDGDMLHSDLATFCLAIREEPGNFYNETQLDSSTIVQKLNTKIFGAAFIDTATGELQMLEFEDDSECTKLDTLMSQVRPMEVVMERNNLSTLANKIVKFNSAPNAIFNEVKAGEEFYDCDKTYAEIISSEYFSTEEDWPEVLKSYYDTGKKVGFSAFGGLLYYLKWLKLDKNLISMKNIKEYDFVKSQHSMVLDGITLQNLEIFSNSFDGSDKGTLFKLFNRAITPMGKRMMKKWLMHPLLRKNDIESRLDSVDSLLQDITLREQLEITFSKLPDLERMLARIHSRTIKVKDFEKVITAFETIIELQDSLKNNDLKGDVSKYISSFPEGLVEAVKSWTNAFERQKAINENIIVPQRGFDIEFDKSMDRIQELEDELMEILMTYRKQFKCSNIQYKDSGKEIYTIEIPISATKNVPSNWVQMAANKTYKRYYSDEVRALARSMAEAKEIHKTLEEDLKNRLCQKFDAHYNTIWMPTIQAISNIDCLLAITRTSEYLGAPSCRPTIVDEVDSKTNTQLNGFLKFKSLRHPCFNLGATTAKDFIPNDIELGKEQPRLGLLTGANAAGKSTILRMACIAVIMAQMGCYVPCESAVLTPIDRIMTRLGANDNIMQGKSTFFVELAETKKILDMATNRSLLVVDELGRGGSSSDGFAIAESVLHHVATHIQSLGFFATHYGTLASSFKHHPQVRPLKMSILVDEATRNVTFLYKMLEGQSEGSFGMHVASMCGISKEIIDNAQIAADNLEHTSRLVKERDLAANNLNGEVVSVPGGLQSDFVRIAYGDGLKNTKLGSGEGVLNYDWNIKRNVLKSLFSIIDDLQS
Experiment: UV cross-linking of [γ-32P]ATP, SDS-PAGE, phosphorimaging
Assay type: binding
Details: labelled compound; no Mg2+, EDTA, pH 8, on ice; Msh2 site at 60 μM ATP, Msh6 site at 1 μM ATP

SMILES: Nc1ncnc2c1ncn2[C@@H]1O[C@H](COP(=O)(O)OP(=O)(O)OP(=O)(O)O)[C@@H](O)[C@H]1O [ATP]
- relative ATP binding: Msh2(K694A)–Msh6 and Msh2(K694R)–Msh6 mutant complexes were defective for ATP binding to both
